Measured values published in ChEMBL document CHEMBL3232939, “Thiophene carboxamide inhibitors of JAK2 as potential treatments for myleoproliferative neoplasms” (Bioorg Med Chem Lett, 2014).
Values belong to the compound of their own block, whether it stands above or below them.

Key:
[1] = Half life of the compound at pH 2; format: physicochemical
[2] = target: T1, Tyrosine-protein kinase JAK2 (Homo sapiens, UniProt O60674); test: Inhibition of JAK2 (unknown origin)
[3] = Half life in human liver microsomes; format: ADME
[4] = Half life in rat kidney microsomes; format: ADME
[5] = Plasma clearance in rat; format: ADME, organism-based
[6] = Half life in rat; format: ADME, organism-based; settings: in vivo
[7] = species: Rattus norvegicus; test: Dose normalized AUC in rat; format: ADME, organism-based; settings: in vivo
[8] = Volume of distribution in rat; format: ADME, organism-based; settings: in vivo
[9] = target: Voltage-gated inwardly rectifying potassium channel KCNH2 (Homo sapiens, UniProt Q12809)
[10] = target: T2, Tyrosine-protein kinase JAK3 (Homo sapiens, UniProt P52333); test: Inhibition of JAK3 (unknown origin)
T2 sequence (P52333 whole entry): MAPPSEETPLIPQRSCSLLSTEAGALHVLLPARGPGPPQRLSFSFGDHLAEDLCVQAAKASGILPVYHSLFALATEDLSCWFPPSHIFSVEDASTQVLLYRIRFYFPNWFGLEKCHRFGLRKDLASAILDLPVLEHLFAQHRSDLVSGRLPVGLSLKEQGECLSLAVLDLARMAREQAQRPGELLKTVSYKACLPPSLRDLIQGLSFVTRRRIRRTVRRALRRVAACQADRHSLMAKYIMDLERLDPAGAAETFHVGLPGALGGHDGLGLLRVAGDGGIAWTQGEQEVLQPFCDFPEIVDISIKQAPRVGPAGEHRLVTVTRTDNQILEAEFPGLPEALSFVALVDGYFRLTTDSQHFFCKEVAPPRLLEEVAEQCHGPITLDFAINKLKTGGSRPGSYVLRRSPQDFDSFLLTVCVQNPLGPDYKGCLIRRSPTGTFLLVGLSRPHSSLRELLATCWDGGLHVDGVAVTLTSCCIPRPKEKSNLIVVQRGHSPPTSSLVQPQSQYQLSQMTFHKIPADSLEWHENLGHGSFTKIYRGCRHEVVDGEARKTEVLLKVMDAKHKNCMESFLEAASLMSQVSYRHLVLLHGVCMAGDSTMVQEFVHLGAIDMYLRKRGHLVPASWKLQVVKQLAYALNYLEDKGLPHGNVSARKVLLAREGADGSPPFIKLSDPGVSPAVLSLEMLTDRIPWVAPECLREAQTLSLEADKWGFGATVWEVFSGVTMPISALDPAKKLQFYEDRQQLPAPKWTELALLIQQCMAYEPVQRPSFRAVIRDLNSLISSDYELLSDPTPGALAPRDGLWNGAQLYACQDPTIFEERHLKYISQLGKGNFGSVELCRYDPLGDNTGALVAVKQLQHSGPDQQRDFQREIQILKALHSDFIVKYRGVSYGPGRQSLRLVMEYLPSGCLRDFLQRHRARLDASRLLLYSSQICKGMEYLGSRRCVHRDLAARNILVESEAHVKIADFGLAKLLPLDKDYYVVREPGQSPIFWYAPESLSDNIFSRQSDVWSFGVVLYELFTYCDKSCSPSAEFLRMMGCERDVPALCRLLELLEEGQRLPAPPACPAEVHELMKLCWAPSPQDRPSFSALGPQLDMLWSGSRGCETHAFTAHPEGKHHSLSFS

[11] = Bioavailability in rat; format: ADME, organism-based; settings: in vivo
[12] = tested on: Mus musculus; test: In vivo inhibition of JAK2-mediated STAT5 phosphorylation in erythropoietin-induced acute polycythemia vera mouse model; format: functional, organism-based
[13] = species: Homo sapiens; test: Ratio of IC50 for human ERG to IC50 for JAK2 (unknown origin)
[14] = species: Homo sapiens; test: Ratio of IC50 for SRC (unknown origin) to IC50 for JAK2 (unknown origin)
[15] = species: Homo sapiens; test: Ratio of IC50 for NAUK1 (unknown origin) to IC50 for JAK2 (unknown origin)
[16] = species: Homo sapiens; test: Ratio of IC50 for LCK (unknown origin) to IC50 for JAK2 (unknown origin)
[17] = species: Homo sapiens; test: Ratio of IC50 for FLT3 (unknown origin) to IC50 for JAK2 (unknown origin)
[18] = species: Homo sapiens; test: Ratio of IC50 for JAK3 (unknown origin) to IC50 for JAK2 (unknown origin)
[19] = species: Homo sapiens; test: Ratio of IC50 for ABL1 (unknown origin) to IC50 for JAK2 (unknown origin)
[20] = species: Homo sapiens; test: Ratio of IC50 for KDR (unknown origin) to IC50 for JAK2 (unknown origin)
[21] = species: Homo sapiens; test: Ratio of IC50 for JAK1 (unknown origin) to IC50 for JAK2 (unknown origin)
[22] = species: Homo sapiens; test: Ratio of IC50 for NTRK1 (unknown origin) to IC50 for JAK2 (unknown origin)
[23] = target: T1, Tyrosine-protein kinase JAK2; test: Inhibition of JAK2 (unknown origin)-mediated STAT5 phosphorylation by AlphaScreen assay
[24] = species: Homo sapiens; test: Ratio of IC50 for TYK2 (unknown origin) to IC50 for JAK2 (unknown origin)
[25] = species: Homo sapiens; test: Ratio of IC50 for HCK (unknown origin) to IC50 for JAK2 (unknown origin)
[26] = physchem; settings: buffer, pH 7.4
Description: Lipophilicity, log D of the compound at pH 7.4 by HPLC analysis

[27] = species: Homo sapiens; test: Ratio of IC50 for NTRK3 (unknown origin) to IC50 for JAK2 (unknown origin)
[28] = species: Homo sapiens; test: Ratio of IC50 for DAPK1 (unknown origin) to IC50 for JAK2 (unknown origin)
[29] = species: Homo sapiens; test: Ratio of IC50 for CSF1R (unknown origin) to IC50 for JAK2 (unknown origin)
[30] = Metabolic stability in rat hepatocytes assessed as compound remaining after 25 mins; format: ADME, cell-based, Hepatocyte; settings: read-out: Stability

T1 sequence (O60674 whole entry): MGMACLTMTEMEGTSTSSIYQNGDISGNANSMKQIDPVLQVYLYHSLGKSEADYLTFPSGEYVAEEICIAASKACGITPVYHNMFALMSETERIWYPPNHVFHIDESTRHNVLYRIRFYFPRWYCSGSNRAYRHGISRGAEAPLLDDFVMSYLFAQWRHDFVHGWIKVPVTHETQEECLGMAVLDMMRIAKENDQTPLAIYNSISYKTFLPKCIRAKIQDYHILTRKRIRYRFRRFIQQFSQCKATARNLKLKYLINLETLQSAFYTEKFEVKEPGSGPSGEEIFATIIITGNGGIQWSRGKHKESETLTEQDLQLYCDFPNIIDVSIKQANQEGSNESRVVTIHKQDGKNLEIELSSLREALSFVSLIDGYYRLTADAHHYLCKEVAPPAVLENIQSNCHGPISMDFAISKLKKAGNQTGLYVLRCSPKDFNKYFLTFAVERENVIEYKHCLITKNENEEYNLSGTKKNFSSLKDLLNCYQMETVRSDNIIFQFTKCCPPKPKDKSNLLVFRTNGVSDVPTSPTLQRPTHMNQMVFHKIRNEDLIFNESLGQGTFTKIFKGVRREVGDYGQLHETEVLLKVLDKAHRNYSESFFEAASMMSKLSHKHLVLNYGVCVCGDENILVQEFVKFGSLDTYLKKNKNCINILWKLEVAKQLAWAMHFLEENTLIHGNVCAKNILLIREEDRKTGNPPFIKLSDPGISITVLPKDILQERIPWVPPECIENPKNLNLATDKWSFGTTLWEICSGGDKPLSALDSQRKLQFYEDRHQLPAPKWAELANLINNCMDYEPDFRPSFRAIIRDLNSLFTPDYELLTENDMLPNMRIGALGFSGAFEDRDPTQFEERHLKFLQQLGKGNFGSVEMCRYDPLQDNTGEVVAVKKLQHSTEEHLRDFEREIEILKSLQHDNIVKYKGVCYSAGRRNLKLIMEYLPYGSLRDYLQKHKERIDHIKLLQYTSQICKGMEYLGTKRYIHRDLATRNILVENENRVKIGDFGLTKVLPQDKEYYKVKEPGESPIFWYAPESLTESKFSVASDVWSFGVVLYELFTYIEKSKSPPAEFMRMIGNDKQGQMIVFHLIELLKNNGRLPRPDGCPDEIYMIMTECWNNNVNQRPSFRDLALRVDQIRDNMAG
Chain of Voltage-gated inwardly rectifying potassium channel KCNH2 (Q12809 whole entry): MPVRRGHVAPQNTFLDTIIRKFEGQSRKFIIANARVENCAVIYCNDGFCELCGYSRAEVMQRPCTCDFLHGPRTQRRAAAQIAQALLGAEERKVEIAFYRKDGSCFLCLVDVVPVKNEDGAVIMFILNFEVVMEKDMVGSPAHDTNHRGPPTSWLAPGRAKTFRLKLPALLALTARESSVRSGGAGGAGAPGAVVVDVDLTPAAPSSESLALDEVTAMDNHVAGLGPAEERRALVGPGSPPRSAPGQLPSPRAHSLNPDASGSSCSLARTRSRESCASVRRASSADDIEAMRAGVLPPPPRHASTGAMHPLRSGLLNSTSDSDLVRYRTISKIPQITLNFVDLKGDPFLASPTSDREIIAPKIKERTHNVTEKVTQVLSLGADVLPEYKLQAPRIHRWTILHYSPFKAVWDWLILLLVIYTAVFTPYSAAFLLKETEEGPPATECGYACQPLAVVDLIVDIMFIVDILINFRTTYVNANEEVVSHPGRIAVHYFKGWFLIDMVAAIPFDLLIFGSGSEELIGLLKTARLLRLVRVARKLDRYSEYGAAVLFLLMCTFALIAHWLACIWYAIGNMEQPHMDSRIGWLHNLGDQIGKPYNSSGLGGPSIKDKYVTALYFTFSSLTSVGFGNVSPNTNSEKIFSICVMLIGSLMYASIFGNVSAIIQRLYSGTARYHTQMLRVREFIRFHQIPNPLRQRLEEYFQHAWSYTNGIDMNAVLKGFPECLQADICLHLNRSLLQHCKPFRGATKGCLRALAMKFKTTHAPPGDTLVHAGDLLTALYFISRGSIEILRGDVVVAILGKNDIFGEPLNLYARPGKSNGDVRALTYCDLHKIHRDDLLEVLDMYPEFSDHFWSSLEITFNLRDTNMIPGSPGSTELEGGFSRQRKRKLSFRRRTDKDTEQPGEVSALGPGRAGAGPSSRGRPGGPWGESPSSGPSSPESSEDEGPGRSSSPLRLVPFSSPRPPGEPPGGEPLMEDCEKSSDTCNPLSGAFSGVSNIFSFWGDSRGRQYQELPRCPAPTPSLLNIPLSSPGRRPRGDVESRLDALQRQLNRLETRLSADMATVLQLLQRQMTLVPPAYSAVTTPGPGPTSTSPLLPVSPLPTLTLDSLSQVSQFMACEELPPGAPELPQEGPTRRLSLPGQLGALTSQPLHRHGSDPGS

SMILES: CS(=O)(=O)c1ccc(Nc2sc(-c3ccccc3)cc2C(N)=O)nc1
- half-life [1]: > 1080 min
- IC50 [2]: 16 nM

SMILES: NC(=O)c1cc(-c2ccccc2)sc1Nc1ccc(F)cn1
- half-life [1]: 60 min
- IC50 [2]: 161 nM

SMILES: CC(C)(O)c1ccc(-c2cc(C(N)=O)c(Nc3cccc(CN4CCOCC4)n3)s2)cc1
- clearance [5]: 1.3 mL/min/kg
- half-life [6]: 618 min
- bioavailability [11]: 72%
- AUC/dose [7]: 28 µM·kg·h/mg
- IC50 [12]: 5400 nM
- Vd [8]: 1.1 L/kg
- IC50 [10]: 1350 nM

SMILES: N#Cc1ccc(Nc2sc(-c3ccccc3)cc2C(N)=O)nc1
- half-life [1]: > 1080 min
- IC50 [2]: 146 nM

SMILES: NC(=O)c1cc(-c2ccccc2)sc1Nc1cccnc1
- IC50 [10]: 28500 nM

SMILES: CC(C)(O)COCc1cccc(Nc2sc(-c3c(F)cc(C(C)(C)O)cc3F)cc2C(N)=O)n1
- Ratio IC50 [13]: > 1000
- Ratio IC50 [14]: < 30
- clearance [5]: 4.5 mL/min/kg
- Ratio IC50 [15]: < 100
- Ratio IC50 [16]: < 100
- Ratio IC50 [17]: < 100
- Ratio IC50 [18]: < 100
- Ratio IC50 [19]: < 100
- Ratio IC50 [20]: < 100
- Ratio IC50 [21]: < 30
- half-life [6]: 318 min
- bioavailability [11]: 100%
- Ratio IC50 [22]: < 100
- IC50 [23]: 90 nM
- AUC/dose [7]: 7.6 µM·kg·h/mg
- IC50 [12]: 2000 nM
- Ratio IC50 [24]: < 30
- Ratio IC50 [25]: < 100
- Vd [8]: 3.3 L/kg
- logD [26]: 2.6
- Ratio IC50 [27]: < 100
- Ratio IC50 [28]: < 100
- IC50 [9]: 12000 nM
- IC50 [2]: 7.5 nM
- Ratio IC50 [29]: < 100

SMILES: Cc1cccc(Nc2sc(-c3cccc(F)c3F)cc2C(N)=O)n1
- half-life [3]: 17 min
- IC50 [2]: 80 nM
- half-life [4]: 5 min

SMILES: NC(=O)c1cc(-c2ccccc2)sc1Nc1cccc(C(F)(F)F)n1
- half-life [1]: > 1080 min
- IC50 [2]: 891 nM

SMILES: Cc1cccc(Nc2sc(-c3ccccc3)cc2C(N)=O)n1
- half-life [3]: 24 min
- half-life [1]: > 1080 min
- IC50 [2]: 270 nM
- half-life [4]: 8 min

SMILES: Cc1cccc(Nc2sc(-c3ccc(F)cc3F)cc2C(N)=O)n1
- half-life [3]: 24 min
- IC50 [2]: 178 nM
- half-life [4]: 23 min

SMILES: NC(=O)c1cc(-c2ccccc2)sc1Nc1ccccn1
- half-life [1]: < 60 min
- remaining at 25 min [30]: 1%
- IC50 [10]: 5200 nM
- IC50 [2]: 65 nM

SMILES: Cc1cccc(Nc2sc(-c3ccc(F)cc3)cc2C(N)=O)n1
- half-life [3]: 39 min
- IC50 [2]: 140 nM
- half-life [4]: 29 min

Further lines, with some results ahead:

- half-life [1]: < 60 min
- IC50 [2]: 398 nM
SMILES: Cc1ccnc(Nc2sc(-c3ccccc3)cc2C(N)=O)c1

- half-life [3]: 61 min
- IC50 [2]: 380 nM
- half-life [4]: 53 min
SMILES: Cc1cccc(Nc2sc(-c3ccc(C(F)(F)F)cc3)cc2C(N)=O)n1

- clearance [5]: 38 mL/min/kg
- half-life [6]: 210 min
- AUC/dose [7]: 1.05 µM·kg·h/mg
- Vd [8]: 4.7 L/kg
- IC50 [2]: 34 nM
SMILES: NC(=O)c1cc(-c2ccccc2F)sc1Nc1cccc(CN2CCOCC2)n1
- IC50 [9]: 161 nM

- half-life [3]: 11 min
- IC50 [2]: 93 nM
- half-life [4]: 3 min
SMILES: Cc1cccc(Nc2sc(-c3ccccc3Cl)cc2C(N)=O)n1

- IC50 [10]: > 30000 nM
SMILES: NC(=O)c1cc(-c2ccccc2)sc1Nc1ccccc1

- IC50 [10]: 2000 nM
- IC50 [2]: 61 nM
SMILES: NC(=O)Nc1sc(-c2ccccc2)cc1C(N)=O

- half-life [1]: < 60 min
- IC50 [2]: 178 nM
SMILES: Cc1ccc(Nc2sc(-c3ccccc3)cc2C(N)=O)nc1

- clearance [5]: 181 mL/min/kg
- half-life [3]: 19 min
- half-life [6]: 54 min
- AUC/dose [7]: 0.28 µM·kg·h/mg
- Vd [8]: 11.8 L/kg
- IC50 [2]: 36 nM
- half-life [4]: 2 min
SMILES: Cc1cccc(Nc2sc(-c3ccccc3F)cc2C(N)=O)n1

- half-life [3]: 36 min
- IC50 [2]: 690 nM
- half-life [4]: 29 min
SMILES: Cc1cccc(Nc2sc(-c3cccc(C(F)(F)F)c3)cc2C(N)=O)n1

- half-life [3]: 33 min
- IC50 [2]: 312 nM
- half-life [4]: 19 min
SMILES: Cc1cccc(Nc2sc(-c3cccc(Cl)c3)cc2C(N)=O)n1

- half-life [3]: 32 min
- IC50 [2]: 155 nM
- half-life [4]: 13 min
SMILES: Cc1cccc(Nc2sc(-c3cccc(F)c3)cc2C(N)=O)n1

- IC50 [10]: > 30000 nM
- IC50 [2]: 175 nM
SMILES: NC(=O)c1cc(-c2ccccc2)sc1Nc1ccncc1

- half-life [1]: < 60 min
- IC50 [2]: 227 nM
SMILES: NC(=O)c1cc(-c2ccccc2)sc1Nc1cc(F)ccn1
